Target: Cyclin-dependent kinase 2/G1/S-specific cyclin-E1 (Homo sapiens, UniProt P24941+P24864)
Experiment: TR-FRET Assay
Experimental: Compound Preparation. Dissslove the compounds into DMSO solution to make 10 mM DMSO stock. Serially dilute the stock solution from highest concentration down to lowest in DMSO to make the compound stock plate (100× stock plates). To make 5× compound intermediate plate, add 38 μL of assay buffer (50 mM HEPES, pH 7.5, 0.05 mg/mL BSA, 10 mM MgCl2, 1 mM EGTA, 0.01% Tween-20, 2 mM DTT) into each well of the V-bottom plate; then transfer 2 μL of the stock compound solution of each concentration from the compound stock plate (100× stock), and mix well. Enzyme reaction. Transfer 2 μL compound from 5× intermediate plate into assay plate, then add 4 μL/well 2.5× Enzyme mix to assay plate, incubation for 10 min at room temperature. For positive control wells, add 4 μL/well assay buffer instead of Enzyme mix. Then add 4 μL/well 2.5× Substrate mix to assay plate, and incubation at 25° C. for 30 min at room temperature. After reaction, 10 μL 2× Detection mix (final 15 mM EDTA, 1× LANCE Detection Buffer, 0.5 nM Detection antibody) was added and incubated for 1 h prior to detection with excitation and emission at 320 and 665 nm (Tecan Spark TR-FRET mode Tecan).

IC50: 0.8 nM
Structure (SMILES): COCc1cc(C(=O)Nc2cc([C@H]3CC[C@@H](OC(=O)N4CCC5(CCC5)C4)C3)[nH]n2)n(C)n1 [US20250195475, Example 6]
